Data: patent publication US5990101A, “Carbapenem derivatives” (Meiji Seika Kabushiki Kaisha, priority 1995, dated 1999)

Columns and labels:
[1] = Acute toxicity; format: in vivo; settings: three ICR male mice, 1500 mg/kg i.v.
[2] = tested on: E. faecalis W-73; experiment: Antibacterial activity (MIC, two-fold method), E. faecalis W-73; format: cell-based; parameters: unit not given here
[3] = tested on: P. vulgaris GN76; experiment: Antibacterial activity (MIC, two-fold method), P. vulgaris GN76; format: cell-based; parameters: unit not given here
[4] = tested on: E. coli 255; experiment: Antibacterial activity (MIC, two-fold method), E. coli 255; format: cell-based; parameters: unit not given here
[5] = tested on: E. coli NIHJ JC-2; experiment: Antibacterial activity (MIC, two-fold method), E. coli NIHJ JC-2; format: cell-based; parameters: unit not given here
[6] = tested on: S. aureus 209P JC-1; experiment: Antibacterial activity (MIC, two-fold method), S. aureus 209P JC-1; format: cell-based; parameters: unit not given here
[7] = tested on: Ps. aeruginosa E-2; experiment: Antibacterial activity (MIC, two-fold method), Ps. aeruginosa E-2; format: cell-based; parameters: unit not given here
[8] = tested on: Ps. aeruginosa M-0148; experiment: Antibacterial activity (MIC, two-fold method), Ps. aeruginosa M-0148; format: cell-based; parameters: unit not given here
[9] = tested on: E. cloacae GN747; experiment: Antibacterial activity (MIC, two-fold method), E. cloacae GN747; format: cell-based; parameters: unit not given here
[10] = tested on: K. pneumoniae PC1602; experiment: Antibacterial activity (MIC, two-fold method), K. pneumoniae PC1602; format: cell-based; parameters: unit not given here
[11] = tested on: S. aureus M126; experiment: Antibacterial activity (MIC, two-fold method), S. aureus M126 (methicillin-resistant); format: cell-based; parameters: unit not given here
From the text: *: Methicillinresistant Staphylococcus aureus-

[12] = tested on: C. freudii GN346; experiment: Antibacterial activity (MIC, two-fold method), C. freudii GN346; format: cell-based; parameters: unit not given here
[13] = tested on: S. marcescens GN10857; experiment: Antibacterial activity (MIC, two-fold method), S. marcescens GN10857; format: cell-based; parameters: unit not given here
[14] = tested on: renal dehydropeptidase-1 (DHP-1); settings: background art; cited from earlier work

C[C@@H](O)[C@H]1C(=O)N2C(C(=O)[O-])=C(C[n+]3cc4scc(CNS(N)(=O)=O)n4c3)[C@H](C)[C@H]12 [Example 14, (1S,5R,6S)-6-[(1R)-1-hydroxyethyl]-2-[3-(aminosulfonyl)aminomethylimidazo[5,1-b]thiazolium-6-yl]methyl-1-methyl-1-carbapen-2-em-3-carboxylate]
survival (acute toxicity) [1]: All the animal survived

C[C@@H](O)[C@H]1C(=O)N2C(C(=O)[O-])=C(Cn3cc4sc(C(N)=O)c[n+]4c3)[C@H](C)[C@H]12 [Example 68, (1S,5R,6S)-6-[(1R)-1-hydroxyethyl]-2-(2-carbamoylimidazo[5,1-b]thiazolium-6-yl)methyl-1-methyl-1-carbapen-2-em-3-carboxylate]
MIC [2]: 6.25 | MIC [3]: 0.78 | MIC [4]: 0.20 | MIC [5]: 0.20 | MIC [6]: < 0.025 | MIC [7]: 3.13 | MIC [8]: 3.13 | MIC [9]: 0.20 | MIC [10]: 0.20 | MIC [11]: 6.25 | MIC [12]: 0.10 | MIC [13]: 0.39

C[C@@H](O)[C@H]1C(=O)N2C(C(=O)O)=C(SCCN=CN)C[C@H]12 [Imipenem]
stability against renal dehydropeptidase-1 (DHP-1) [14]: instability
